Measured values: ChEMBL document CHEMBL5537195, “Novel Covalent Probe Selectively Targeting Glutathione Peroxidase 4 In Vivo: Potential Applications in Pancreatic Cancer Therapy” (J Med Chem, 2024)
Calls of active or inactive are those of the source. No cut-off for these calls is given here.

Tests used:
[1] = system: NCI-H522; test: Induction of ferroptosis in human NCI-H522 cells assessed as reduction in cell viability incubated for 72 hrs by CCK-8 assay; format: functional, cell-based; settings: NCI-H522, 72 h
[2] = molecular target: T1, Phospholipid hydroperoxide glutathione peroxidase GPX4 (Homo sapiens) (UniProt P36969); test: Binding affinity to GPX4 in human HPAC cells at 0.2 uM incubated for 1 hr by SDS-PAGE analysis; format: cell-based
T1 sequence (whole entry): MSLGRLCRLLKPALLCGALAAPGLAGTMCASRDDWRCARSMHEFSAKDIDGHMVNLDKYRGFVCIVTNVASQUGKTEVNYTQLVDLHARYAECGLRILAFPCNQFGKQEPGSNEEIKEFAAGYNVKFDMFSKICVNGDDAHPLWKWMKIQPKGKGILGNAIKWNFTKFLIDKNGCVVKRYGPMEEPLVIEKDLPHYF

[3] = organism: Homo sapiens; test: Binding affinity to GPX4 U46C mutant (unknown origin) incubated for 1 hr by pull-down based Western blot analysis; settings: dose 0.2-5 µM
[4] = molecular target: T1, Phospholipid hydroperoxide glutathione peroxidase GPX4 (Homo sapiens); test: Binding affinity to GPX4 in human PANC-1 cells at 0.2 uM incubated for 1 hr by SDS-PAGE analysis; format: cell-based
[5] = Half life in Sprague-Dawley rat at 2 mg/kg, iv measured upto 48 hrs by LC-MS/MS analysis; format: ADME, organism-based; settings: in vivo
[6] = molecular target: T1, Phospholipid hydroperoxide glutathione peroxidase GPX4 (Homo sapiens); test: Binding affinity to GPX4 in human SW1990 cells at 0.2 uM incubated for 1 hr by SDS-PAGE analysis; format: cell-based
[7] = Cmax in Sprague-Dawley rat at 2 mg/kg, iv measured upto 48 hrs by LC-MS/MS analysis; format: ADME, organism-based; settings: in vivo
[8] = system: CFPAC-1; test: Antiproliferative activity against human CFPAC-1 cells assessed as inhibition of cell growth incubated for 72 hrs by CCK-8 assay; format: functional, cell-based; settings: CFPAC-1, 72 h
[9] = system: ASPC1; test: Induction of ferroptosis in human ASPC1 cells assessed as reduction in cell viability incubated for 48 hrs followed by compound washout by CCK-8 assay; format: functional, cell-based; settings: ASPC1, 48 h
[10] = system: ASPC1; test: Induction of ferroptosis in human ASPC1 cells assessed as decrease in intracellular GSH level at 5 uM incubated for 5 hrs in absence of […]; format: functional, cell-based
[11] = Toxicity in NOD-SCID mouse xenografted with human ASPC1 cells assessed as mortality at 10 mg/kg, ip administered for once daily for 14 days; format: organism-based; settings: in vivo, 336 h, time 14 day
[12] = system: ASPC1; test: Induction of ferroptosis in human ASPC1 cells assessed as cell death at 2 uM in presence of Necrostatin-1; format: functional, cell-based
[13] = system: ASPC1; test: Induction of ferroptosis in human ASPC1 cells assessed as reduction in cell viability incubated for 24 hrs followed by compound washout by CCK-8 assay; format: functional, cell-based; settings: ASPC1, 24 h
[14] = molecular target: T1, Phospholipid hydroperoxide glutathione peroxidase GPX4 (Homo sapiens); test: Competitive binding affinity to GPX4 in human ASPC1 cells at 0.2 uM incubated for 1 hr in presence of ML210; format: cell-based
[15] = system: PANC-1; test: Antiproliferative activity against human PANC-1 cells assessed as inhibition of cell growth incubated for 72 hrs by CCK-8 assay; format: functional, cell-based; settings: PANC-1, 72 h
[16] = molecular target: T1, Phospholipid hydroperoxide glutathione peroxidase GPX4 (Homo sapiens); test: Competitive binding affinity to GPX4 in human ASPC1 cells at 0.2 uM incubated for 1 hr in presence of ML210 by immunofluorescence based confocal microscopic analysis; format: cell-based
[17] = system: ASPC1; test: Induction of ferroptosis in human ASPC1 cells assessed as effect on ROS level at 1 uM incubated for 3 hrs in presence of […]; format: functional, cell-based
[18] = system: Mus musculus; test: In vivo target engagement at GPX4 in SCID mouse at 10 mg/kg, ip qd administered for 14 days and measured after 2 hrs by pull-down based Western blot analysis; format: functional, organism-based; settings: time 14.0 day
[19] = system: ASPC1; test: Induction of ferroptosis in human ASPC1 cells assessed as decrease in intracellular GSH level at 5 uM incubated for 5 hrs in presence of […]; format: functional, cell-based
[20] = system: ASPC1; test: Induction of ferroptosis in human ASPC1 cells assessed as reduction in cell viability incubated for 24 hrs by CCK-8 assay; format: functional, cell-based; settings: ASPC1, 24 h
[21] = system: Mus musculus; test: In vivo target engagement at GPX4 in SCID mouse at 10 mg/kg, ip qd administered for 14 days and measured after 2 hrs by SDS-PAGE analysis; format: functional, organism-based; settings: time 14.0 day
[22] = molecular target: T1, Phospholipid hydroperoxide glutathione peroxidase GPX4 (Homo sapiens); test: Competitive binding affinity to GPX4 in human ASPC1 cells at 0.2 uM incubated for 1 hr in presence of ML162; format: cell-based
[23] = system: HPAF-II; test: Antiproliferative activity against human HPAF-II cells assessed as inhibition of cell growth incubated for 72 hrs by CCK-8 assay; format: functional, cell-based
[24] = system: ASPC1; test: Induction of ferroptosis in human ASPC1 cells assessed as cell death at 2 uM in presence of Ferrostatin-1; format: functional, cell-based
[25] = molecular target: T1, Phospholipid hydroperoxide glutathione peroxidase GPX4 (Homo sapiens); test: Binding affinity to GPX4 in human Hs766T cells at 0.2 uM incubated for 1 hr by SDS-PAGE analysis; format: cell-based
[26] = Toxicity in NOD-SCID mouse xenografted with human ASPC1 cells assessed as body weight loss at 10 mg/kg, ip administered for once daily for 14 days; format: organism-based; settings: in vivo, 336 h, time 14 day
[27] = molecular target: T1, Phospholipid hydroperoxide glutathione peroxidase GPX4 (Homo sapiens); test: Binding affinity to GPX4 in human Panc1005 cells at 0.2 uM incubated for 1 hr by SDS-PAGE analysis; format: cell-based
[28] = molecular target: T1, Phospholipid hydroperoxide glutathione peroxidase GPX4 (Homo sapiens); test: Binding affinity to GPX4 in human ASPC1 cells at 0.2 uM incubated for 1 hr in presence of N-ethynyl-N-methyl-4-((methyl(4(trifluoromethyl)phenyl)amino)methyl)benzenesulfonamide by SDS-PAGE analysis; format: cell-based
[29] = system: ASPC1; test: Induction of ferroptosis in human ASPC1 cells assessed as cell death at 2 uM in presence of Z-VAD-FMK; format: functional, cell-based
[30] = system: ASPC1; test: Induction of apoptosis in human ASPC1 cells at 20 to 200 nM incubated for 48 hrs by FITC based flow cytometry analysis; format: functional, cell-based; settings: dose 20-200 nM
[31] = molecular target: T1, Phospholipid hydroperoxide glutathione peroxidase GPX4 (Homo sapiens); test: Binding affinity to GPX4 in human ASPC1 cells assessed as thermal stability at 10 uM at 43 to 64 degreeC for 3 mins by CETSA analysis; format: cell-based
[32] = system: ASPC1; test: Induction of ferroptosis in human ASPC1 cells assessed as reduction in cell viability incubated for 72 hrs by CCK-8 assay; format: functional, cell-based; settings: ASPC1, 72 h
[33] = system: ASPC1; test: Induction of ferroptosis in human ASPC1 cells assessed as cell death at 2 uM in presence of 3-methyladenine; format: functional, cell-based
[34] = molecular target: T1, Phospholipid hydroperoxide glutathione peroxidase GPX4 (Homo sapiens); test: Binding affinity to GPX4 in human ASPC1 cells at 0.2 uM incubated for 12 hr followed by compound washout by SDS-PAGE analysis; format: cell-based
[35] = molecular target: T1, Phospholipid hydroperoxide glutathione peroxidase GPX4 (Homo sapiens); test: Binding affinity to GPX4 in human BXPC-3 cells at 0.2 uM incubated for 1 hr by SDS-PAGE analysis; format: cell-based
[36] = system: ASPC1; test: Antitumor activity against human ASPC1 cells xenografted in NOD-SCID mouse assessed as tumor growth inhibition at 10 mg/kg, ip administered for 14 days; format: functional; settings: ASPC1, 336 h, time 14 day, read-out: TGI
[37] = molecular target: T1, Phospholipid hydroperoxide glutathione peroxidase GPX4 (Homo sapiens); test: Binding affinity to GPX4 in human MIA PaCa-2 cells at 0.2 uM incubated for 1 hr by SDS-PAGE analysis; format: cell-based
[38] = system: ASPC1; test: Antiproliferative activity against human AsPC1 cells assessed as inhibition of cell growth incubated for 72 hrs by CCK-8 assay; format: functional, cell-based; settings: ASPC1, 72 h

Question: Which IC50 [1] does the source give for C#CCN(Cc1ccc(S(=O)(=O)N(C)C#C)cc1)c1ccc(-c2nc3ccccc3s2)cc1 here?
Answer: Its IC50 is 0.003 µM.

Question: And the Activity [2]?
Answer: Its Activity is “Active”.

Question: What about the Activity [3] of the same compound?
Answer: Its Activity is “Active”.

Question: What about the Activity [4] of the same compound?
Answer: Its Activity is “Active”.

Question: What about the half-life [5] of the same compound?
Answer: Its half-life is 2.55 h.

Question: And the Activity [6]?
Answer: The Activity was “Active”.

Question: And the Cmax [7]?
Answer: Its Cmax is 2250 ng/mL.

Question: What about the IC50 [8] of the same compound?
Answer: The IC50 was 0.02 µM.

Question: What about the IC50 [9] of the same compound?
Answer: The IC50 was 0.033 µM.

Question: What about the Activity [10] of the same compound?
Answer: Its Activity is “Active”.

Question: What about the Activity [11] of the same compound?
Answer: Its Activity is “Non-Toxic”.

Question: What about the Activity [12] of the same compound?
Answer: The Activity was “inactive”.

Question: What about the IC50 [13] of the same compound?
Answer: Its IC50 is 0.062 µM.

Question: And the Activity [14]?
Answer: Its Activity is “Active”.

Question: And the IC50 [15]?
Answer: Its IC50 is 0.02 µM.

Question: And the Activity [16]?
Answer: The Activity was “inactive”.

Question: And the Activity [17]?
Answer: The Activity was “Active”.

Question: What about the Activity [18] of the same compound?
Answer: The Activity was “Active”.

Question: What about the Activity [19] of the same compound?
Answer: The Activity was “Active”.

Question: And the IC50 [20]?
Answer: The IC50 was 0.037 µM.

Question: And the Activity [21]?
Answer: The Activity was “Active”.

Question: What about the Activity [22] of the same compound?
Answer: The Activity was “Active”.

Question: What about the IC50 [23] of the same compound?
Answer: The IC50 was 0.02 µM.

Question: What about the Activity [24] of the same compound?
Answer: Its Activity is “inactive”.

Question: What about the Activity [25] of the same compound?
Answer: The Activity was “Active”.

Question: And the Activity [26]?
Answer: The Activity was “Non-Toxic”.

Question: What about the Activity [27] of the same compound?
Answer: Its Activity is “Active”.

Question: What about the Activity [28] of the same compound?
Answer: The Activity was “Active”.

Question: And the Activity [29]?
Answer: The Activity was “inactive”.

Question: What about the Activity [30] of the same compound?
Answer: The Activity was “inactive”.

Question: And the Activity [31]?
Answer: Its Activity is “Active”.

Question: What about the IC50 [32] of the same compound?
Answer: Its IC50 is 0.014 µM.

Question: What about the Activity [33] of the same compound?
Answer: The Activity was “inactive”.

Question: And the Activity [34]?
Answer: Its Activity is “Active”.

Question: And the Activity [35]?
Answer: Its Activity is “Active”.

Question: And the inhibition in vivo at 10 mg/kg [36]?
Answer: The inhibition in vivo at 10 mg/kg was 28%.

Question: And the Activity [37]?
Answer: Its Activity is “Active”.

Question: And the IC50 [38]?
Answer: Its IC50 is 0.022 µM.
